From patent publication US10556907B2 (AbbVie Inc., priority 2015, dated 2020)

Key:
Assay in all cases: Method 1: intracellular Ca2+ release (FLIPR, Calcium 5) in recombinant CHO-K1 cells
Assay type in all cases: cell-based
human S1PR1 receptor = biological target: T1, human S1PR1 receptor (Homo sapiens, UniProt P21453); settings: (1): determined with method 1; read-out: S1P1 EC50
T1 construct: host or cells: CHO-K1
Protocol: (§1) Agonistic activity was measured using two different methods, described below.
(§2) Method 1. Intracellular Ca^2+ Release
(§3) Agonist potency and intrinsic activity was assessed by measurement of intracellular Ca^2+ release. Recombinant CHO-K1 cells (Euroscreen, Brussels, Belgium) expressing human S1PR5, S1PR1, S1PR3 or S1PR4 receptors, aequorin, and GTP binding protein Gq/i5 were cultured using a medium containing nutrient mixture F-12 Ham (Sigma-Aldrich) with 10% FBS, and 100 μg/mL gentamicin and equilibrated at 5% CO2.
(§4) 15.000 cells in 20 μL medium were seeded into Biocoat poly-D-Lysine coated 384 well plates (Becton Dickinson #35-6663) and grown to 95% confluency after 24 h.
(§5) Culture medium was replaced by an assay buffer consisting of HBBS with Ca^2+ and Mg^2+ (Invitrogen #14025-050), 20 mmol/L Hepes (Sigma-Aldrich #H-3375), 2.5 mmol/L probenecid (Sigma-Aldrich #P-8761, and 0.1% BSA (Sigma-Aldrich #A-7030) pH 7.4. The Calcium 5 no-wash FLIPR assay kit (Molecular Devices #5000625) was performed as described in the kit instructions. Cells were incubated with Calcium 5 dye for 1 h at 37° C., 5% CO2 in the dark. After 45 min adaptation to RT assessment of agonist stimulation of intracellular Ca^2+ release was performed by addition of test compounds at concentrations obtained by serial dilution. Phospho-fingolimod was used as positive control. Antagonists were pre-incubated for 10 min with cells before addition of the agonist (phospho-fingolimod at EC80). Measurements were performed using a fluorometric imaging plate reader FLIPR® tetra (Molecular Devices). Agonist at the human S1P receptors were characterized by deducing EC50 (potency) values from a nonlinear fit to the measured fluorescence raw data after normalization to the reference agonist (phospho-fingolimod) curve.

human S1PR3 receptor = biological target: T2, human S1PR3 receptor (Homo sapiens, UniProt Q99500); settings: (1): determined with method 1; read-out: S1P3 EC50
T2 construct: host or cells: CHO-K1
T2 sequence (Q99500 whole entry): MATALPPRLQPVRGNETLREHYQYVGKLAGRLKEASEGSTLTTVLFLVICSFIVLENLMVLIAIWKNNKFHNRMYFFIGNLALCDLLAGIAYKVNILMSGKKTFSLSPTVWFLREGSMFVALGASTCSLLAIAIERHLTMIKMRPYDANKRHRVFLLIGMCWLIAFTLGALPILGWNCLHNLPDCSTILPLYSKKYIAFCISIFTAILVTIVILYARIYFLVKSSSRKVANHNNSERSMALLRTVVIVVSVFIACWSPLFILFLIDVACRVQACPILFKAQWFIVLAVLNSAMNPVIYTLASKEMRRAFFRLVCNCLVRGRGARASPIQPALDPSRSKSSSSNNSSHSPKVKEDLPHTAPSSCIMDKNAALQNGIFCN
Protocol: as §1, §2, §3, §4, §5

human S1PR5 receptor = biological target: T3, human S1PR5 receptor (Homo sapiens, UniProt Q9H228); settings: agonist potency, determined with method 1 (symbols A-D); read-out: S1P5 EC50 range
T3 construct: host or cells: CHO-K1
T3 sequence (Q9H228 whole entry): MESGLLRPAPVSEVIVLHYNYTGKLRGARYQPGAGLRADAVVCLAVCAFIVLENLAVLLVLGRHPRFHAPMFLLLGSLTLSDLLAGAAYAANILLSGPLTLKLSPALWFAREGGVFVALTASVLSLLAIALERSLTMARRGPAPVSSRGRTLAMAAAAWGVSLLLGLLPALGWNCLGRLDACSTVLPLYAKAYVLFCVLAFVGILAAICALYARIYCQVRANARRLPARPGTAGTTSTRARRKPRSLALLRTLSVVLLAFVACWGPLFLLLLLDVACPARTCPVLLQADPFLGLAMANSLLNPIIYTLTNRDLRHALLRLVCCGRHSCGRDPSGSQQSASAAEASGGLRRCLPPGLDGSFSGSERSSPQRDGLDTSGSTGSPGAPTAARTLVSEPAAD
Protocol: as §1, §2, §3, §4, §5

T1 sequence (P21453 whole entry): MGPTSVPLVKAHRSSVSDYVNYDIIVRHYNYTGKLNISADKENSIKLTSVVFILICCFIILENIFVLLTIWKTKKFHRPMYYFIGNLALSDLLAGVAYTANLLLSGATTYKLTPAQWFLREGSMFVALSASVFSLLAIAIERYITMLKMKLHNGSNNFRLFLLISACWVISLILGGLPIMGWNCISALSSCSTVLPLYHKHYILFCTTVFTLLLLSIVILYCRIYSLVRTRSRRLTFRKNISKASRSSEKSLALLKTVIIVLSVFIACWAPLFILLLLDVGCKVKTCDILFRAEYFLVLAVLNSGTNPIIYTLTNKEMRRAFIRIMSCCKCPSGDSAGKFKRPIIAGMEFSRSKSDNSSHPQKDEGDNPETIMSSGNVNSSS

Structure (SMILES) | EC50 (human S1PR1 receptor) [nM] | EC50 (human S1PR3 receptor) [nM] | EC50 (human S1PR5 receptor) [nM]
Cc1cccc(C)c1COc1ccc(-c2ncc3c(n2)CCN(CC(C)C(=O)O)C3)cc1 (stereo not drawn) [Compound 15, 3-(2-(4-((2,6-dimethylbenzyl)oxy)phenyl)-7,8-dihydropyrido[4,3-d]pyrimidin-6(5H)-yl)-2-methylpropanoic acid] | < 1000 | > 1000 | < 10
CC(C)Oc1ccc(-c2ncc3c(n2)CCN(CCCC(=O)O)C3)cc1Cl [Compound 47, 4-(2-(3-chloro-4-isopropoxyphenyl)-7,8-dihydropyrido[4,3-d]pyrimidin-6(5H)-yl)butanoic acid] | > 1000 | > 1000 | 1000 to 10000
O=C(O)CCCN1CCc2nc(-c3ccc(OCc4ccccc4)cc3)ncc2C1 [Compound 37, 4-(2-(4-(benzyloxy)phenyl)-7,8-dihydro-dihydropyrido[4,3-d]pyrimidin-6(5H)-yl)butanoic acid] | > 1000 | > 1000 | 10 to 100
O=C(O)CCN1CCc2nc(-c3ccc(OCc4ccccc4)cc3)ncc2C1 [Compound 67, 3-(2-(4-(benzyloxy)phenyl)-7,8-dihydropyrido[4,3-d]pyrimidin-6(5H)-yl)propanoic acid] | > 1000 | > 1000 | 10 to 100
CC(CN1CCc2nc(-c3ccc(OCc4cccc(F)c4F)cc3)ncc2C1)C(=O)O (stereo not drawn) [Compound 16, 3-(2-(4-((2,3-difluorobenzyl)oxy)phenyl)-7,8-dihydropyrido[4,3-d]pyrimidin-6(5H)-yl)-2-methylpropanoic acid] | < 1000 | > 1000 | < 10
CC(CN1CCc2nc(-c3ccc(OCc4ccc(F)c(F)c4)cc3)ncc2C1)C(=O)O (stereo not drawn) [Compound 11, 3-(2-(4-((3,4-difluorobenzyl)oxy)phenyl)-7,8-dihydropyrido[4,3-d]pyrimidin-6(5H)-yl)-2-methylpropanoic acid] | > 1000 | > 1000 | < 10
CC(CC(=O)O)N1CCc2nc(-c3ccc(OCc4ccccc4)cc3)ncc2C1 (stereo not drawn) [Compound 36, 3-(2-(4-(benzyloxy)phenyl)-7,8-dihydropyrido[4,3-d]pyrimidin-6(5H)-yl)butanoic acid] | > 1000 | > 1000 | 100 to 1000
CC(CN1CCc2nc(-c3ccc(OCc4cccc(Cl)c4)cc3)ncc2C1)C(=O)O (stereo not drawn) [Compound 10, 3-(2-(4-((3-chlorobenzyl)oxy)phenyl)-7,8-dihydropyrido[4,3-d]pyrimidin-6(5H)-yl)-2-methylpropanoic acid] | > 1000 | > 1000 | < 10
CC(CC(=O)O)N1CCc2nc(-c3ccc(OCc4cccc(F)c4)cc3)ncc2C1 (stereo not drawn) [Compound 41, 3-(2-(4-((3-fluorobenzyl)oxy)phenyl)-7,8-dihydropyrido[4,3-d]pyrimidin-6(5H)-yl)butanoic acid] | > 1000 | > 1000 | < 10
O=C(O)CCCN1CCc2nc(-c3ccc(OCc4cccc(Cl)c4)cc3)ncc2C1 [Compound 38, 4-(2-(4-((3-chlorobenzyl)oxy)phenyl)-7,8-dihydropyrido[4,3-d]pyrimidin-6(5H)-yl)butanoic acid] | > 1000 | > 1000 | < 10
O=C(O)CCCN1CCc2nc(C#Cc3cc(F)ccc3F)ncc2C1 [Compound 49, 4-(2-((2,5-difluorophenyl)ethynyl)-7,8-dihydropyrido[4,3-d]pyrimidin-6(5H)-yl)butanoic acid] | > 1000 | > 1000 | 1000 to 10000
O=C(O)CCN1CCc2nc(-c3ccc(OCc4cccc(C(F)F)c4)cc3)ncc2C1 [Compound 76, 3-(2-(4-((3-difluoromethylbenzyl)oxy)phenyl)-7,8-dihydropyrido[4,3-d]pyrimidin-6(5H)-yl)propanoic acid] | > 1000 | > 1000 | < 10

Results, then the compound that gave them:

EC50 (human S1PR1 receptor) [nM] | EC50 (human S1PR3 receptor) [nM] | EC50 (human S1PR5 receptor) [nM] | Structure (SMILES)
< 1000 | > 1000 | < 10 | O=C(O)CCN1CCc2nc(-c3ccc(OCc4ccc(F)c(F)c4)cc3)c(F)cc2C1 [Compound 198, 3-(2-(4-((3,4-difluorobenzyl)oxy)phenyl)-3-fluoro-7,8-dihydro-1,6-naphthyridin-6(5H)-yl)propanoic acid]
> 1000 | > 1000 | < 10 | O=C(O)CCN1CCc2nc(-c3ccc(OCc4ccc(C(F)(F)F)cc4)cc3)ncc2C1 [Compound 81, 3-(2-(4-((4-(trifluoromethyl)benzyl)oxy)phenyl)-7,8-dihydropyrido[4,3-d]pyrimidin-6(5H)-yl)propanoic acid]
> 1000 | > 1000 | 10 to 100 | O=C(O)CCN1CCc2nc(-c3ccc(OCc4ccccc4OC(F)F)cc3)ncc2C1 [Compound 90, 3-(2-(4-((2-(difluoromethoxy)benzyl)oxy)phenyl)-7,8-dihydropyrido[4,3-d]pyrimidin-6(5H)-yl)propanoic acid]
> 1000 | > 1000 | < 10 | O=C(O)CCN1CCc2nc(-c3ccc(OCc4ccc(C(F)F)cc4)cc3)ncc2C1 [Compound 77, 3-(2-(4-((4-difluoromethylbenzyl)oxy)phenyl)-7,8-dihydropyrido[4,3-d]pyrimidin-6(5H)-yl)propanoic acid]
> 1000 | > 1000 | < 10 | CSc1ccc(COc2ccc(-c3ncc4c(n3)CCN(CCC(=O)O)C4)cc2)cc1 [Compound 80, 3-(2-(4-((4-(methylthio)benzyl)oxy)phenyl)-7,8-dihydropyrido[4,3-d]pyrimidin-6(5H)-yl)propanoic acid]
> 1000 | > 1000 | 100 to 1000 | CC(CN1CCc2nc(-c3ccc(OCc4ccccc4F)c(Cl)c3)ccc2C1)C(=O)O (stereo not drawn) [Compound 105, 3-(2-(4-((2-fluorobenzyl)oxy)-3-chlorophenyl)-7,8-dihydro-1,6-naphthyridin-6(5H)-yl)-2-methylpropanoic acid]
< 1000 | > 1000 | < 10 | O=C(O)CCN1CCc2nc(-c3ccc(OCc4cccc(F)c4F)cc3)c(F)cc2C1 [Compound 197]
> 1000 | > 1000 | < 10 | O=C(O)CCN1CCc2nc(-c3ccc(OCc4cccc(C(F)(F)F)c4)cc3)ncc2C1 [Compound 86, 3-(2-(4-((3-(trifluoromethyl)benzyl)oxy)phenyl)-7,8-dihydropyrido[4,3-d]pyrimidin-6(5H)-yl)propanoic acid]
> 1000 | > 1000 | 10 to 100 | Cc1ccc(C(F)(F)F)cc1COc1ccc(-c2ccc3c(n2)CCN(CCC(=O)O)C3)cc1 [Compound 158, 3-(2-(4-((2-methyl-5-(trifluoromethyl)benzyl)oxy)phenyl)-7,8-dihydro-1,6-naphthyridin-6(5H)-yl)propanoic acid]
> 1000 | > 1000 | < 10 | O=C(O)CCN1CCc2nc(-c3ccc(OCc4cccc(C(F)(F)F)c4)cc3)c(F)cc2C1 [Compound 194, 3-(2-(4-((3-trifluoromethylbenzyl)oxy)phenyl)-3-fluoro-7,8-dihydro-1,6-naphthyridin-6(5H)-yl)propanoic acid]
< 1000 | > 1000 | < 10 | Cc1c(COc2ccc(-c3ncc4c(n3)CCN(CCC(=O)O)C4)cc2)cccc1C(F)(F)F [Compound 94, 3-(2-(4-((2-methyl-3-(trifluoromethyl)benzyl)oxy)phenyl)-7,8-dihydropyrido[4,3-d]pyrimidin-6(5H)-yl)propanoic acid]
< 1000 | > 1000 | < 10 | O=C(O)CCN1CCc2nc(-c3ccc(OCc4ccc(F)cc4)cc3)c(F)cc2C1 [Compound 190, 3-(2-(4-((4-fluorobenzyl)oxy)phenyl)-3-fluoro-7,8-dihydro-1,6-naphthyridin-6(5H)-yl)propanoic acid]
> 1000 | > 1000 | 10 to 100 | CC(CC(=O)O)CN1CCc2nc(-c3ccc(OCc4ccc(Cl)cc4)cc3)ncc2C1 (single isomer, unassigned; (-)) [Compound 213, (−)-4-(2-(4-((4-chlorobenzyl)oxy)phenyl)-7,8-dihydropyrido[4,3-d]pyrimidin-6(5H)-yl)-3-methylbutanoic acid]
> 1000 | > 1000 | 10 to 100 | Cc1cc(-c2cc3c(cn2)CN(CCC(=O)O)CC3)ccc1OCc1ccccc1 [Compound 171, 3-(6-(4-(benzyloxy)-3-methylphenyl)-3,4-dihydro-2,7-naphthyridin-2(1H)-yl)propanoic acid]
> 1000 | > 1000 | 1000 to 10000 | O=C(O)CCN1CCc2ncc(-c3ccc(OCc4ccc(Cl)cc4)cc3)nc2C1 [Compound 223, 3-(3-(4-((4-chlorobenzyl)oxy)phenyl)-7,8-dihydropyrido[3,4-b]pyrazin-6(5H)-yl)propanoic acid]
